Consider 71 compounds from paper PMC6792352, “Limited Chemical Structural Diversity Found to Modulate Thyroid Hormone Receptor in the Tox21 Chemical Library” (Environmental Health Perspectives, 2019).

Structures can show the parent of a compound that is named as a salt.

The data set in a line: in vitro. The conditions noted are these: rat, gh3-tre-luc cells.

On to `CC(Cl)Cl` [1,1-Dichloroethane], for which the CC50 at 24 h (AC50 (uM) modified / 1000, Tox21_110001=Tox21_200205, viability, 1 nM T3 present, 24 h) is above 90 µM. As to `O=C(Nc1ccc(Br)cc1)c1cc(Br)c(Br)s1` [Tibrofan], half-maximal cytotoxicity (AC50 (uM) modified / 1000) (CC50 at 24 h) was put at 19.8 µM. `CC(C)(C)C(=O)C(=O)O` [3,3-Dimethyl-2-oxobutyric acid] showed a CC50 at 24 h (AC50 (uM) modified / 1000) above 90 µM. The same measure, in the same setting: under `CCCCCCCC/C=C\CCCCCCCC(=O)OC[C@@H](O)[C@H]1OC[C@H](O)[C@H]1O` [Sorbitan, mono-(9Z)-9-octadecenoate] stands above 50 µM. The same measure, in the same setting: under `O=C1NC(=O)C(c2ccccc2)(c2ccccc2)N1` [5,5-Diphenylhydantoin] stands above 90 µM; under `Nc1nc(N)nc(NC2CC2)n1` [Cyromazine], above 90 µM; under `O=C1OC2(c3ccc(O)cc3Oc3cc(O)ccc32)c2ccccc21` [Fluorescein], above 50 µM. Same read-out and setting: the result for `COc1ccc2[nH]c([S+]([O-])Cc3ncc(C)c(OC)c3C)nc2n1` (stereo not shown) [Tenatoprazole] reads 41.8 µM; that for `Clc1cc(Cl)cc(Cl)c1` [1,3,5-Trichlorobenzene], above 90 µM. Regarding `O=C1c2ccccc2-c2n[nH]c3cccc1c23` [SP600125], the CC50 at 24 h (AC50 (uM) modified / 1000) was above 50 µM. On to `CNP(=O)(OC)Oc1ccc(C(C)(C)C)cc1Cl` (stereo not shown) [Crufomate], for which the CC50 at 24 h (AC50 (uM) modified / 1000, Tox21_110001=Tox21_302262, viability, 1 nM T3 present, 24 h) was above 90 µM. The compound `CCc1nccnc1CC` [2,3-Diethylpyrazine] gave a CC50 at 24 h (AC50 (uM) modified / 1000) above 30 µM. Where the note is “AC50 (uM) modified / 1000”, `C=CCN1C[C@H](C)N([C@H](c2ccc(C(=O)N(CC)CC)cc2)c2cccc(OC)c2)C[C@H]1C` [SNC 80] gave a cytotoxic concentration (CC50) at 24 h of 28.8 µM.

For the setting “AC50 (uM) modified / 1000, Tox21_110001=Tox21_302319, viability, 1 nM T3 present, 24 h”, `O=S(=O)(O)C(F)(F)C(F)(F)C(F)(F)C(F)(F)C(F)(F)C(F)(F)C(F)(F)C(F)(F)F` [Lithium perfluorooctanesulfonate] displayed a CC50 at 24 h of 52.3 µM. For the compound `CCC(=O)OCCOc1ccccc1` [Phenoxyethyl propionate], where the note is “AC50 (uM) modified / 1000”, the CC50 at 24 h was above 90 µM. On the same count and under the same terms, under `ClC=C(Cl)Cl` [Trichloroethylene] stands above 90 µM. On the same count and under the same terms, the result for `O=C1CSC2(CCN(CCCN3c4ccccc4Sc4ccc(Cl)cc43)CC2)N1` [Spiclomazine hydrochloride] reads 6.81 µM; that for `CC(=O)Nc1ccc(C)c(Cl)c1` [N-(3-Chloro-4-methylphenyl)acetamide], above 90 µM.

For the setting “AC50 (uM) modified / 1000”, `C1CCNCC1` [Piperidine] gave a CC50 at 24 h above 90 µM. Still for that read-out and setting: the result for `CC(N)CN` (stereo not shown) [1,2-Diaminopropane] reads above 100 µM; that for `CCCCOCCOC(=O)CCCCCCCCC(=O)OCCOCCCC` [Bis(2-butoxyethyl) decanedioate], above 90 µM; that for `NC(Cc1ccc(F)cc1)C(=O)O` (racemic) [4-Fluoro-dl-phenylalanine], 2.98 µM. On the same count and under the same terms, the result for `N#Cc1c(F)cccc1F` [2,6-Difluorobenzonitrile] reads above 90 µM; that for `O=C(NC(=O)c1c(F)cccc1F)Nc1ccc(Cl)cc1` [Diflubenzuron], above 90 µM; that for `C=COCC(C)C` [Vinyl isobutyl ether], above 100 µM. `Cc1c[nH]cn1` [4-Methylimidazole] showed a CC50 at 24 h (AC50 (uM) modified / 1000, Tox21_110001=Tox21_201048, viability, 1 nM T3 present, 24 h) above 90 µM.

In turn, `CN1CCCN=C1/C=C/c1cccs1` [Pyrantel tartrate] returned a CC50 at 24 h (AC50 (uM) modified / 1000) above 50 µM. `CON(C)C(=O)Nc1ccc(Br)cc1` [Metobromuron] displayed a CC50 at 24 h (AC50 (uM) modified / 1000, Tox21_110001=Tox21_301964, viability, 1 nM T3 present, 24 h) above 90 µM.

In turn, `Oc1ccc(Sc2ccc(O)cc2)cc1` [4,4'-Thiodiphenol] had a CC50 at 24 h (AC50 (uM) modified / 1000) of 47.9 µM. Still for that read-out and setting: the result for `OCCCCCCCCCCCCBr` [12-Bromo-1-dodecanol] reads above 90 µM; that for `CN1CCN(CC/C=C2/c3ccccc3Sc3ccc(S(=O)(=O)N(C)C)cc32)CC1` [Thiothixene], 10.7 µM; that for `CCCCC(CC)COC(=O)/C=C\C(=O)OCC(CC)CCCC` (stereo not shown) [Bis(2-ethylhexyl) maleate], above 90 µM.

Consider `NC(=S)c1c(Cl)cccc1Cl` [Chlorthiamid], for which the CC50 at 24 h (AC50 (uM) modified / 1000) was above 90 µM. The same measure, in the same setting: under `O=Cc1ccc(Cl)c(Cl)c1` [3,4-Dichlorobenzaldehyde] stands above 90 µM; under `O=C1CN=C(c2ccccc2)c2cc([N+](=O)[O-])ccc2N1` [Nitrazepam], above 50 µM.

With `CCNc1nc(NCC)nc(SC)n1` [Simetryn], the CC50 at 24 h (AC50 (uM) modified / 1000, Tox21_110001=Tox21_300702, viability, 1 nM T3 present, 24 h) is above 90 µM. Where the note is “AC50 (uM) modified / 1000”, `O=C(O)c1ccccc1-n1cc(C(=O)O)c(=O)c2cc(Nc3c(F)cc(F)cc3Cl)c(Cl)cc21` [AVE9423] displayed a 50% cytotoxic concentration (CC50) at 24 h above 90 µM.

For `CCC(=O)Nc1ccc(Cl)c(Cl)c1` [Propanil], for the setting “AC50 (uM) modified / 1000”, the half-maximal cytotoxic concentration (CC50) at 24 h was above 90 µM. Turning to `CC(=O)Oc1cc(C(F)(F)F)ccc1C(=O)O` [Triflusal], the CC50 at 24 h (AC50 (uM) modified / 1000) is above 20 µM. Still for that read-out and setting: under `CC(C)OC(C)C` [Isopropyl ether] stands above 100 µM; under `CCCCCCCCCCCCN(CCCCCCCCCCCC)CCCCCCCCCCCC` [Tridodecylamine], above 90 µM. Same read-out and setting: the result for `O[C@@H]([C@H](O)[C@H](O)CBr)[C@H](O)CBr` [Dibromomannitol] reads above 90 µM; that for `CCCCCCCCc1ccc(S(=O)(=O)O)cc1` [Sodium 4-octylbenzenesulfonate], above 90 µM.

In turn, `O=C(O)CCCCCCCC(=O)O` [Nonanedioic acid] registered a CC50 at 24 h (AC50 (uM) modified / 1000) above 90 µM. On to `COC(=O)c1c(C(F)F)nc(C(F)(F)F)c(C2=NCCS2)c1CC(C)C` [Thiazopyr], for which the CC50 at 24 h (AC50 (uM) modified / 1000, Tox21_110001=Tox21_300822, viability, 1 nM T3 present, 24 h) is above 90 µM. On to `COc1ccc2c(c1)[C@]13CCCC[C@@H]1[C@H](C2)N(C)CC3` [Dextromethorphan hydrobromide monohydrate], for which the CC50 at 24 h (AC50 (uM) modified / 1000, Tox21_110001=Tox21_110766, viability, 1 nM T3 present, 24 h) is above 50 µM. On to `COCC(C)N` (stereo not shown) [1-Methoxy-2-propylamine], for which the CC50 at 24 h (AC50 (uM) modified / 1000) was above 90 µM. The same measure, in the same setting: under `O=S(=O)(O)c1ccc(Nc2nc(Nc3ccc(/C=C/c4ccc(Nc5nc(Nc6ccc(S(=O)(=O)O)cc6)nc(N(CCO)CCO)n5)cc4S(=O)(=O)O)c(S(=O)(=O)O)c3)nc(N(CCO)CCO)n2)cc1` [C.I. Fluorescent Brightener 220] stands above 60 µM; under `CC(=O)OCC[N+](C)(C)C` [Acetylcholine chloride], above 50 µM.

As to `OCCC(F)(F)C(F)(F)C(F)(F)C(F)(F)C(F)(F)C(F)(F)C(F)(F)C(F)(F)F` [8:2 Fluorotelomer alcohol], where the note is “AC50 (uM) modified / 1000”, the CC50 at 24 h is above 90 µM. Same read-out and setting: under `CCOCCOCC` [Ethylene glycol diethyl ether] stands above 100 µM.

`Cc1c(COC(=O)[C@@H]2[C@H](/C=C(\Cl)C(F)(F)F)C2(C)C)cccc1-c1ccccc1` (racemic) [Bifenthrin] yielded a CC50 at 24 h (AC50 (uM) modified / 1000) above 90 µM. Still for that read-out and setting: the result for `Oc1ccc2ccc3cccc4ccc1c2c34` [1-Hydroxypyrene] reads above 90 µM; that for `O=C(OCc1ccccc1)c1cccnc1` [Benzyl nicotinate], above 50 µM; that for `O=C1c2ccccc2C(=O)C1c1ccc2ccccc2n1` [D & C Yellow 11], above 50 µM. Still for that read-out and setting: the result for `CCC(CC)(CC(=O)Nc1cccc(/C=C/c2nc(C3CCC3)cs2)c1)C(=O)O` [Cinalukast] reads above 50 µM.

Regarding `O=S(=O)(O)Oc1ccc(C(c2ccc(OS(=O)(=O)O)cc2)c2ccccn2)cc1` [Picosulfate sodium], where the note is “AC50 (uM) modified / 1000”, the CC50 at 24 h is above 50 µM. Still for that read-out and setting: the result for `COc1ccc(Nc2ccc(OC)cc2)cc1` [4,4'-Dimethoxydiphenylamine] reads 50.3 µM. On the same count and under the same terms, under `Oc1cccc2ccccc12` [1-Naphthol] stands above 90 µM; under `C=Cc1ccc(OC(C)=O)cc1` [4-Ethenylphenyl acetate], above 90 µM. As to `C[C@H]1[C@@H]2Cc3ccc(O)cc3[C@@]1(C)CCN2C` [(+)-Metazocine fumarate (2:1)], the CC50 at 24 h (AC50 (uM) modified / 1000, Tox21_110001=Tox21_112826, viability, 1 nM T3 present, 24 h) was above 200 µM. On to `CCCCCCC(=O)OCC` [Ethyl heptanoate], for which the CC50 at 24 h (AC50 (uM) modified / 1000) was above 90 µM. The same measure, in the same setting: under `Cc1ccc(Cl)c(N)c1Cl` [2,6-Dichloro-3-methylaniline] stands above 90 µM; under `COc1cc(N)c(Cl)cc1C(=O)NC1CCN(CCCOc2ccc(F)cc2)CC1OC` (stereo not shown) [Cisapride], 13 µM; under `ICCc1ccccc1` [2-Iodoethylbenzene], above 90 µM. The same measure, in the same setting: under `CC1=CC[C@H](CC=O)C1(C)C` [[(1R)-2,2,3-Trimethylcyclopent-3-en-1-yl]acetaldehyde] stands above 90 µM; under `CCCCCCCC(=O)N(C)C` [N,N-Dimethyloctanamide], above 90 µM. As for `C[C@H]1CCCC(=O)CCC/C=C/c2cc(O)cc(O)c2C(=O)O1` [Zearalenone], the CC50 at 24 h is, setting by setting: (AC50 (uM) modified / 1000, Tox21_110001=Tox21_201153, viability, 1 nM T3 present, 24 h) 41.1 µM; (AC50 (uM) modified / 1000, Tox21_110001=Tox21_303510, viability, 1 nM T3 present, 24 h) 23.5 µM. Regarding `O=c1[nH]c(=O)n([C@H]2C[C@H](O)[C@@H](CO)O2)cc1/C=C/Br` [Brivudine], the CC50 at 24 h (AC50 (uM) modified / 1000) was above 50 µM.

Compound `CC1=C(/C=C/C(C)=C/C=C/C(C)=C/C=O)C(C)(C)CCC1` [Retinal] returned a CC50 at 24 h (AC50 (uM) modified / 1000) of 12.4 µM. `C=CCO` [Allyl alcohol]: the CC50 at 24 h (AC50 (uM) modified / 1000, Tox21_110001=Tox21_200200, viability, 1 nM T3 present, 24 h) was above 100 µM and the CC50 at 24 h (AC50 (uM) modified / 1000, Tox21_110001=Tox21_303507, viability, 1 nM T3 present, 24 h) was above 90 µM.
